Laboratory results taken from paper PMC8041284, “Tunable Methacrylamides for Covalent Ligand Directed Release Chemistry” (Journal of the American Chemical Society, 2021).
Where two headings read alike, the source gives them in different places.

Target: BTK (Homo sapiens, UniProt Q06187)
[1] = 0.75 uM BTK, […] probe 3l, 15 min preincubation; 10 µM; inhibitor
[2] = 0.75 uM BTK, […] probe 3l, 15 min preincubation, 10 µM, inhibitor, BTK inhibition (%)

Chain of BTK (Q06187 402-655 limits assumed): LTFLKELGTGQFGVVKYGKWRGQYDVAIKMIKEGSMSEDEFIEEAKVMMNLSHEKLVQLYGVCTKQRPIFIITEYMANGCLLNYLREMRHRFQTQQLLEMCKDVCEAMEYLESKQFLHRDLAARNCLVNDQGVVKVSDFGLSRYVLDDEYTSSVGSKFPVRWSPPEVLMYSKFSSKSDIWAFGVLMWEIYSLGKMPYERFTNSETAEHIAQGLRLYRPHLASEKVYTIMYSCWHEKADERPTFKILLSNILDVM

| SMILES | BTK inhibition (%) [1] [%] | BTK inhibition (%) [2] [%] | also measured |
| --- | --- | --- | --- |
| CCCCC(C#N)(Cn1cncn1)c1ccc(Cl)cc1 (stereo not shown) [PCM-0216598] | 3.1 | – | – |
| C[C@H](O)[C@H](O)[C@@H](O)[C@@H](O)C=O [PCM-0214991] | – | -11.7 | – |
| CO/N=C(\C(=O)N[C@@H]1C(=O)N2C(C(=O)O)=C(CSC(=O)c3ccco3)CS[C@H]12)c1csc(N)n1 [PCM-0216235] | – | 0.8 | – |
| COC(=O)C1=CCCN(C)C1 [PCM-0003961] | – | – | BTK inhibition (%) (10 µM; inhibitor): -10.1% |
| COc1ccc2[nH]c([S@@+]([O-])Cc3ncc(C)c(OC)c3C)nc2c1 [PCM-0214815] | – | -10.9 | – |
| C[N+]1(C)[C@@H]2CC(OC(=O)[C@H](CO)c3ccccc3)C[C@H]1[C@@H]1O[C@@H]12 (stereo partly shown) [PCM-0095246] | 10.9 | – | – |
| CC(=O)Oc1ccccc1C(=O)O [PCM-0214911] | – | 1.6 | – |
| Nc1nc2[nH]cc(CCc3ccc(C(=O)N[C@@H](CCC(=O)O)C(=O)O)cc3)c2c(=O)[nH]1 [PCM-0090283] | – | 2.6 | – |
| C[C@@H]1O[C@@H]1P(=O)(O)O [PCM-0215255] | – | -21 | – |
| CN1CC=C(c2ccccc2)CC1 [PCM-0214851] | – | – | BTK inhibition (%) (10 µM; inhibitor): 3.1% |
| O=C(Nc1ccc2c(O)cc(S(=O)(=O)O)cc2c1)Nc1ccc2c(O)cc(S(=O)(=O)O)cc2c1 [PCM-0215497] | – | 21.6 | – |
| Nc1nc2[nH]cc(CCc3ccc(C(=O)N[C@@H](CCC(=O)O)C(=O)O)cc3)c2c(=O)[nH]1 [PCM-0215446] | – | -10.2 | – |
| C/C=C\c1cc(OC)c(OC)cc1OC [PCM-0216406] | – | – | BTK inhibition (%) (10 µM; inhibitor): -3.9% |
| Cc1c([C@H](C)[C@@H]2NC[C@@H](C)C[C@H]2O)ccc2c1C[C@H]1[C@H]2CC=C2C[C@@H](O)CC[C@@]21C [PCM-0214977] | – | – | BTK inhibition (%) (10 µM; inhibitor): -2.3% |
| C[C@@H]1CC[C@@]2(OC1)O[C@H]1C[C@H]3[C@@H]4CC=C5C[C@@H](O[C@@H]6O[C@H](CO)[C@@H](O[C@@H]7O[C@@H](C)[C@H](O)[C@@H](O)[C@H]7O)[C@H](O)[C@H]6O[C@@H]6O[C@@H](C)[C@H](O)[C@@H](O)[C@H]6O)CC[C@]5(C)[C@H]4CC[C@]3(C)[C@H]1[C@@H]2C [PCM-0214660] | 38.1 | – | – |
| Cc1cc(C)nc(NS(=O)(=O)c2ccc(N)cc2)n1 [PCM-0086513] | – | -23.3 | – |
| C[C@H]1CCC2N(C1)C[C@H]1C3CC4[C@@H](CC(=O)C5C[C@@H](O)CC[C@@]54C)C3CCC1[C@]2(C)O (stereo partly shown) [PCM-0216425] | – | – | BTK inhibition (%) (10 µM; inhibitor): -17.8% |
| CC[C@@]1(O)C(=O)OCc2c1cc1n(c2=O)Cc2cc3cc(O)ccc3nc2-1 [PCM-0094873] | -14 | – | – |
| COc1ccc(C[C@@H](C)NC[C@H](O)c2ccc(O)c(NC=O)c2)cc1 [PCM-0216637] | – | 6.9 | – |
| CN1[C@@H]2CC[C@H]1CC(OC(=O)c1c[nH]c3ccccc13)C2 (stereo partly shown) [PCM-0086109] | – | -11.7 | – |
| COc1cc([C@H]2OC[C@@H]3[C@@H]2CO[C@H]3c2cc(OC)c(O[C@@H]3O[C@H](CO)[C@@H](O)[C@H](O)[C@H]3O)c(OC)c2)cc(OC)c1O[C@@H]1O[C@H](CO)[C@@H](O)[C@H](O)[C@H]1O [PCM-0216398] | -10 | – | – |
| C[N+](C)(C)CCCCCCCCCC[N+](C)(C)C [PCM-0065265] | 11.7 | – | – |
| Cc1c(O)c(=O)ccn1C [PCM-0085974] | – | -30.4 | – |
| COc1ccc(C(CN(C)C)C2(O)CCCCC2)cc1 (stereo not shown) [PCM-0065195] | 6.2 | – | – |
| O=C(O)O [PCM-0216036] | – | 4.3 | – |

| SMILES | BTK inhibition (%) [1] [%] | BTK inhibition (%) [2] [%] | also measured |
| --- | --- | --- | --- |
| COC1=C[C@@H]2[C@@H]3Cc4ccc(OC)c(O)c4[C@]2(CCN3C)CC1=O [PCM-0090951] | – | – | BTK inhibition (%) (10 µM, inhibitor): 14.8% |
| CN1CCC(c2c[nH]c3ccc(O)cc23)CC1 [PCM-0064588] | – | – | BTK inhibition (%) (10 µM; inhibitor): 16.3% |
| O=C1O[C@H]([C@@H](O)CO)C(O)=C1O [PCM-0085940] | – | 5.4 | – |
| CN1C(=O)[C@@]23C[C@]4([C@]56C[C@@]78SS[C@@](CO)(C(=O)N7[C@H]5Nc5ccccc56)N(C)C8=O)c5ccccc5N[C@@H]4N2C(=O)[C@]1(CO)SS3 [PCM-0215602] | – | – | BTK inhibition (%) (10 µM; inhibitor): 5.4% |
| CC(=O)Oc1ccccc1C(=O)O [PCM-0064532] | – | 7.6 | – |
| CN1[C@@H]2CC[C@H]1CC(OC(=O)[C@H](CO)c1ccccc1)C2 (stereo partly shown) [PCM-0095561] | -14.8 | – | – |
| CN1CCN(C(=O)C2C3CCC(O3)C2C(=O)O)CC1 (stereo not shown) [PCM-0215448] | -11.1 | – | – |
| CN[C@H]1C[C@@H](N)[C@H](O)[C@@H](O[C@@H]2O[C@H](CO)[C@H](O)[C@@H]3OC4(O[C@H]23)O[C@H]([C@@H](N)CO)[C@H](O)[C@H](O)[C@H]4O)[C@@H]1O (stereo partly shown) [PCM-0095389] | 0 | – | – |
| CC1=C[C@]23C(=O)[C@@H](C=C(CO)[C@@H](O)[C@]2(O)[C@H]1O)[C@H]1[C@@H](C[C@H]3C)C1(C)C [PCM-0216393] | -3.1 | – | – |
| C/C=C(/C)C(=O)O[C@H]1[C@@H](OC(C)=O)c2c(ccc3ccc(=O)oc23)OC1(C)C [PCM-0216298] | – | 10 | – |
| N[C@@H](C=O)[C@@H](O)[C@H](O)[C@H](O)CO [PCM-0215073] | – | -2.8 | – |
| COC(=O)C1=C(C)NC(C)=C(C(=O)OCCN2CCN(C(c3ccccc3)c3ccccc3)CC2)C1c1cccc([N+](=O)[O-])c1 (stereo not shown) [PCM-0090281] | 34.2 | – | – |
| CCNc1nc(Cl)nc(NC(C)C)n1 [PCM-0215964] | 3.9 | – | – |
| C/C(=C\C(=O)OCCCCCCCCC(=O)O)C[C@@H]1OC[C@H](C[C@@H]2O[C@H]2[C@@H](C)[C@H](C)O)[C@@H](O)[C@H]1O [PCM-0215997] | – | 13.9 | – |
| O=C(NC(=O)c1c(F)cccc1F)Nc1ccc(OC(F)(F)C(F)OC(F)(F)F)c(Cl)c1 (stereo not shown) [PCM-0216580] | 22.4 | – | – |
| COc1ccc2[nH]c([S@@+]([O-])Cc3ncc(C)c(OC)c3C)nc2c1 [PCM-0214571] | – | -13.2 | – |
| C=C[C@]12CN(C)[C@@H]3[C@H]4CO[C@H](C[C@H]41)[C@]1(C(=O)Nc4ccccc41)[C@@H]32 [PCM-0216528] | – | – | BTK inhibition (%) (10 µM; inhibitor): -0.8% |
| COc1ccc2c(c1)[nH]c1c(C)nccc12 [PCM-0088555] | -17.1 | – | – |
| CCC(=O)NS(=O)(=O)c1ccc(-c2c(-c3ccccc3)noc2C)cc1 [PCM-0214825] | – | 5.5 | – |
| ClC(Cl)=C(c1ccc(Cl)cc1)c1ccc(Cl)cc1 [PCM-0216164] | 10.8 | – | – |
| C1CCN2C[C@H]3C[C@H](CN4CCCC[C@@H]34)[C@H]2C1 [PCM-0216422] | 6.9 | – | – |
| Cn1c(CCCC(=O)O)nc2cc(N(CCCl)CCCl)ccc21 [PCM-0065281] | -3.9 | – | – |
| CN1[C@@H]2CC(OC(=O)[C@H](CO)c3ccccc3)C[C@H]1[C@@H]1O[C@@H]12 (stereo partly shown) [PCM-0086586] | -3.1 | – | – |
| Nc1ccc(S(=O)(=O)Nc2ncccn2)cc1 [PCM-0214831] | – | 10.9 | – |
| Nc1ncnc2c1ccn2[C@@H]1O[C@H](CO)[C@@H](O)[C@H]1O [PCM-0215658] | – | – | BTK inhibition (%) (10 µM; inhibitor): 10.8% |

| SMILES | BTK inhibition (%) [1] [%] | BTK inhibition (%) [2] [%] | also measured |
| --- | --- | --- | --- |
| O=C(O[C@H]1CN2CCC1CC2)N1CCc2ccccc2[C@@H]1c1ccccc1 [PCM-0095538] | -27.2 | – | – |
| Nc1ccc(S(=O)(=O)Nc2ncccn2)cc1 [PCM-0085802] | – | -14 | – |
| Cc1ccccc1C(=O)Nc1ccc(C(=O)N2CCCC(N(C)C)c3ccccc32)cc1 (stereo not shown) [PCM-0095419] | – | -13.6 | – |
| CC1(C)[C@@H](O[C@H]2O[C@H](C(=O)O)[C@@H](O)[C@H](O)[C@H]2O[C@@H]2O[C@H](C(=O)O)[C@@H](O)[C@H](O)[C@H]2O)CC[C@]2(C)[C@H]3C(=O)C=C4[C@@H]5C[C@@](C)(C(=O)O)CC[C@]5(C)CC[C@@]4(C)[C@]3(C)CC[C@@H]12 [PCM-0214876] | – | 35.9 | – |
| CN1CCc2cc3c(cc2[C@H]1[C@@H]1OC(=O)c2c1ccc1c2OCO1)OCO3 [PCM-0095582] | – | – | BTK inhibition (%) (10 µM; inhibitor): -0.8% |
| O=C(Nc1ccc(Oc2ccc(Cl)cc2)c(Cl)c1)c1cc(I)cc(I)c1O [PCM-0216018] | 37.1 | – | – |
| CN1C2=C3N=c4ccccc4=C3CCN2C(=O)c2ccccc21 [PCM-0215051] | – | 4.7 | – |
| Cc1cc(C)nc(NS(=O)(=O)c2ccc(N)cc2)n1 [PCM-0216008] | – | 11.7 | – |
| C[C@H](CCC(=O)NCCS(=O)(=O)O)[C@H]1CC[C@H]2[C@@H]3[C@@H](O)C[C@@H]4C[C@H](O)CC[C@]4(C)[C@H]3CC[C@]12C [PCM-0214942] | – | 4.7 | – |
| CC(C)c1ccc(C=O)cc1 [PCM-0216001] | -18.5 | – | – |
| O=C/C=C/c1ccccc1 [PCM-0215920] | 3.1 | – | – |
| CC[N+](C)(CC)CCOC(=O)C(O)(c1ccccc1)c1ccccc1 [PCM-0214829] | -19.5 | – | – |
| CC(=O)O[C@H]1C[C@@H]2CC[C@@H]3[C@H](CC[C@@]4(C)[C@H]3C[C@H]([N+]3(C)CCCCC3)[C@@H]4OC(C)=O)[C@@]2(C)C[C@@H]1[N+]1(C)CCCCC1 [PCM-0214687] | -21 | – | – |
| COc1cc(NS(=O)(=O)c2ccc(N)cc2)nc(OC)n1 [PCM-0086362] | – | -7.8 | – |
| C[N+]1(C)[C@@H]2CC(OC(=O)C(O)(c3cccs3)c3cccs3)C[C@H]1[C@@H]1O[C@@H]12 (stereo partly shown) [PCM-0095323] | -5.4 | – | – |
| O=C(OC1C[C@H]2CC[C@@H](C1)[N+]21CCCC1)C(O)(c1ccccc1)c1ccccc1 (stereo partly shown) [PCM-0095326] | 7 | – | – |
| C[C@H]1CCCC(=O)CCC/C=C/c2cc(O)cc(O)c2C(=O)O1 [PCM-0216639] | – | – | BTK inhibition (%) (10 µM; inhibitor): 10.8% |
| CN1[C@@H]2CC[C@H]1CC(OC(=O)c1c[nH]c3ccccc13)C2 (stereo partly shown) [PCM-0216191] | – | -12.4 | – |
| O=P1(N(CCCl)CCCl)NCCCO1 (stereo not shown) [PCM-0064707] | -19.3 | – | – |
| C=C1[C@H](CO)[C@@H](O)C[C@@H]1n1cnc2c(=O)[nH]c(N)nc21 [PCM-0216093] | – | 11 | – |
| CCOC(=O)C1=C[C@@H](OC(CC)CC)[C@H](NC(C)=O)[C@@H](N)C1 [PCM-0095436] | -10.2 | – | – |
| C=C[C@]1(C)C[C@@H](OC(=O)CSCCN(CC)CC)[C@]2(C)[C@H](C)CC[C@]3(CCC(=O)[C@H]32)[C@@H](C)[C@@H]1O [PCM-0216045] | – | 0 | – |
| C[C@H](O)[C@H](O)[C@@H](O)[C@@H](O)C=O [PCM-0094862] | – | -7.8 | – |
